Data taken from patent US10471028B2, “Small molecule efflux pump inhibitors” (UNIVERSITY OF ROCHESTER, priority 2014, dated 2019).
Where two headings read alike, the source gives them in different places.

Assays:
[1] = tested on: mammalian calcium channel; assay: Mammalian calcium channel assay (Fluo-4); assay type: cell-based, human; details: HEK 293T, carbachol treatment alone
Description: Many laboratory bacterial efflux inhibitor tool compounds cannot be used in the clinical setting because they limit mammalian ion channel activity. […] Thus, we measured the effects of ABEPI1 and ABEPI2 on mammalian calcium channel functions using Fluo-4 Direct Calcium Channel Assay kits (Life Technologies, Carlsbad, Calif.), in which the dye Fluo-4 was used to measure changes in mammalian cytoplasmic Ca^2+ levels in response to the calcium channel stimulator, carbachol, in the absence and presence of test compound. […] Next, 2× Fluo-4 dye supplemented with Probenecid (5 mM) was added to each well and allowed to equilibrate for 1 hr at 37° C. To determine whether ABEPI1 or ABEPI2 affect Ca^2+ channel activity, Fluo-4 fluorescence measures (excitation 495nm; emission 516nm) were then taken every second for 15 sec.

[2] = tested on: A. baumannii strain 98-37-09; assay: MEC determination: potentiation of minocycline toward serum grown A. baumannii; assay type: cell-based, Acinetobacter baumannii; details: for Log-reduction Colony Forming Units (ml^−1): 1×MEC of compound plus minocycline in serum, versus minocycline alone, plating; for MEC: lowest concentration inhibiting growth in 100% human serum with 0.5 μg ml^−1 minocycline, 48 hr
human HepG2 cells = assay: MTT cell viability (cytotoxicity) assay
Procedure: To distinguish putatively non-toxic from human cytotoxic compounds, conventional 3-(4,5-dimethylthiazol-2yl)-2,5-diphenyltetrazolium bromide (MTT) cell viability assays (American Type Culture Collection, Manassas, Va.) were performed for each compound of interest at 1× and 4× their MEC. Briefly, human HepG2 cells were grown to approximately 1×10^6 cells per well in Dulbecco's Modified Eagle Media supplemented with 10% fetal bovine serum (Invitrogen, Carlsbad, Calif.) then treated with 1× or 4× the MEC of the indicated […] Cell viability was measured following the addition of the tetrazolium salt (MTT) as per the manufacturer's recommendations; cells challenged with 50 ug ml^−1 Mitomycin C (Sigma Aldrich) and mock-treated cells served as positive and negative controls, respectively.

P. aeruginosa PA01 = assay: Potentiation of ciprofloxacin toward serum grown P. aeruginosa; assay type: cell-based, Pseudomonas aeruginosa; details: PA01 in 100% human serum, 1×MEC, ciprofloxacin 0 to 2 μg ml^−1
Procedure: To do so, PA01 was inoculated into individuals wells of a microtiter plate containing 100% human serum supplemented with 1×MEC of test compound and increasing concentrations of ciprofloxacin (0 to 2 μg ml^−1) and cell viability was measured.

[3] = tested on: A. baumannii strain 98-37-09; assay: Potentiation of ciprofloxacin toward serum grown A. baumannii; assay type: cell-based, Acinetobacter baumannii; details: for Potentiate Ciprofloxacin A. baumannii (value in parentheses: log reduction of viability): 1×MEC with ciprofloxacin versus ciprofloxacin alone, plating; for Potentiate Ciprofloxacin A. baumannii: 100% human serum, 0.125 μg ml^−1 ciprofloxacin, 1× or 2× MEC, 48 hour, growth inhibition
Description: As a means to further prioritize non-toxic compounds of interest based on their therapeutic promise, it was considered that broad spectrum antimicrobial efflux pump inhibitors may be more clinically valuable than narrow-spectrum agents that only potentiate the activity of a limited number of antibiotics or that display activity toward a single bacterial species. […] To do so, 1×10^5 A. baumannii strain 98-37-09 were inoculated into individual wells of microtiter plates containing 100% human serum supplemented with 0.125 μg ml^−1 ciprofloxacin and 0, 1×, or 2× the compound's MEC, as defined by the lowest concentration needed to potentiated minocycline's antimicrobial effects (above). Plates were incubated for 48 hour at which point each compound's ability to potentiate ciprofloxacin was measured, as growth inhibition.

[4] = tested on: A. baumannii strain 98-37-09; assay: Cellular accumulation of minocycline (HPLC, triple-quadrupole MS); assay type: cell-based, Acinetobacter baumannii; details: human serum with 0.5 μg mL^−1 minocycline plus test compound (0.5×MEC, 1×MEC), 48 hours
[5] = tested on: A. baumannii strain 98-37-09; assay: Ethidium bromide efflux assay; assay type: cell-based, Acinetobacter baumannii; details: for ethidium bromide fluorescent signal in comparison to mock treated cells: 10 μg ml^−1 ethidium bromide, 90 min; for cellular ethidium fluorescence compared with PAβN: time course after treatment
Procedure: To distinguish whether the antimicrobial potentiation of ABEPI1 and ABEPI2 correlates with the inhibition of A. baumannii's efflux properties, conventional ethidium bromide efflux assays were performed in the presence and absence of each compound. The assay is predicated upon the fluorescent properties of ethidium bromide during intercalation into cellular nucleic acids, whereby efflux active cells display limited intracellular ethidium bromide accumulation and, consequently, low fluorescence. Conversely, efflux inhibition leads to increased cellular ethidium bromide levels and correspondingly high fluorescence relative to efflux proficient cells. Bacterial ethidium bromide efflux activity assays were used to measure the efflux inhibitory properties of compounds of interest. For assays, an overnight culture of A. baumannii strain 98-37-09 was diluted (1:100) into 100% human serum or fresh LB and grown to mid-exponential phase. Cell pellets were collected via centrifugation 900×g for 20 minutes, washed 3× with 20 mM sodium phosphate buffer and resuspended to an OD600nm=0.2 in sodium phosphate buffer. Approximately 1×10^6 CFU were loaded into individual wells of 96-well white-bottom plates, mixed with 10 μg ml^−1 ethidium bromide, and ethidium fluorescence (excitation 530nm; emission 600nm) was measured every 5 min for 90 min on a Spectramax5 fluorimeter (Molecular Devices, Sunnyvale, Calif.). To determine if the putative efflux pump inhibitors affected ethidium bromide efflux, cells were treated with the indicated amount of compound of interest or the efflux pump inhibitor, PaβN, two minutes after fluorescence monitoring began.

A. baumannii = assay: Antibiotic susceptibility assay in LB medium or 100% human serum; assay type: cell-based, Acinetobacter baumannii; details: serum grown, efflux pump inhibitor present
Procedure: The antibiotic susceptibility of A. baumannii and Pseudomonas aeruginosa grown in either LB medium or 100% human serum was measured according to the method described below. Briefly, the indicated bacterial species/strain was grown overnight in LB medium, diluted into fresh medium (1:100 dilution) and grown to mid-exponential phase (OD600nm=0.4 to 0.5) at 37° C. with aeration. […] To quantify the antimicrobial effects of each antibiotic toward bacteria grown in LB or serum, well constitutes were serially diluted in PBS and plated on LB agar to enumerate the CFU mL^−1.

| Compound | increase in cytoplasmic Ca^2+ levels [1] | Log-reduction Colony Forming Units (ml^−1) [2] [log] | MEC [2] [µg/mL] | % Viability (human HepG2 cells; human, 48 h, 4 ×MEC) [%] | Potentiate Ciprofloxacin P. aeruginosa (P. aeruginosa PA01) | Potentiate Ciprofloxacin P. aeruginosa (P. aeruginosa PA01; listed as ABEPI1) | Potentiate Ciprofloxacin A. baumannii (value in parentheses: log reduction of viability) [3] | Potentiate Ciprofloxacin A. baumannii [3] | Minocylcine Per Cell (femtomoles cell^−1) [4] [femtomoles cell^−1] | ethidium bromide fluorescent signal in comparison to mock treated cells [5] | cellular ethidium fluorescence compared with PAβN [5] | % Viability (human HepG2 cells) [%] | restoration of tetracycline susceptibility in serum (A. baumannii) |
| --- | --- | --- | --- | --- | --- | --- | --- | --- | --- | --- | --- | --- | --- |
| C[N+](C)(C)CCOC(N)=O [Carbachol, carbamylocholine chloride] | approximately 2.3 fold | – | – | – | – | – | – | – | – | – | – | – | – |
| NS(=O)(=O)c1ccc(/N=C/c2ccc(Cl)cc2)cc1 [ST009675] | – | 6.73 | 2 | 96.6 | Yes | potentiated the activity of ciprofloxacin | (2.28) log | Yes | 5.88E−04 | significantly increased signal | levels exceeding that of PABN within the first 20 min of treatment | – | – |
| COC(=O)c1ccccc1NC(=O)CN1C(=O)c2ccccc2S1(=O)=O [ST058165] | – | 6.27 | 32 | – | No | – | (1.53) log | Yes | 1.11E−04 | – | – | 76.9 | – |
| CC(C)(C)NC(=O)CSc1nnnn1C(C)(C)C [ST060273] | – | 6.53 | 32 | 90.1 | Yes | – | (4.36) log | Yes | 6.84E−06 | significantly increased signal | essentially identical to those of PAβN until approximately 35 min post-treatment | – | – |
| phenylalanine arginine beta naphthylamide [PAβN, reference compound] | – | – | – | – | – | – | – | – | – | significantly increased cellular ethidium bromide accumulation | – | – | partially restored |
